Test results published in patent US6153645A, “Heterocycles as antimicrobial agents” (Cubist Pharmaceuticals, Inc., priority 1999, dated 2000).
pIC50: −log10 of the molar value. Converted amounts (≈) assume the structure as drawn. Where two headings read alike, the source gives them in different places.

What was measured:
E.faecalis PheRS = biological target: T1, E.faecalis PheRS (Enterococcus faecalis, UniProt Q836J6); assay: aaRS charging and trichloroacetic acid precipitation assay, IC50 determination; type: biochemical; details: 20 min preincubation at 25 C; Km concentrations of substrates; stereoisomers tested separately
T1 sequence (Q836J6 1-348): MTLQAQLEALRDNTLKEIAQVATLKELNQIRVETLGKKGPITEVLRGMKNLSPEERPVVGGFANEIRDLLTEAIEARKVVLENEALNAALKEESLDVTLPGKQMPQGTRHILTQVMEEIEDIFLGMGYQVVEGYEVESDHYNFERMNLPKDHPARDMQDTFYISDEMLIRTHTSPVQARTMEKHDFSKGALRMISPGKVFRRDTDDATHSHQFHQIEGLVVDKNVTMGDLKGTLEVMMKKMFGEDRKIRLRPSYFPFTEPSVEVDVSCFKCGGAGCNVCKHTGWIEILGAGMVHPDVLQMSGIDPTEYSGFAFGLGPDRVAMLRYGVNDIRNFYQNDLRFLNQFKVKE
T1 sequence (Q836J5 1-807 partner): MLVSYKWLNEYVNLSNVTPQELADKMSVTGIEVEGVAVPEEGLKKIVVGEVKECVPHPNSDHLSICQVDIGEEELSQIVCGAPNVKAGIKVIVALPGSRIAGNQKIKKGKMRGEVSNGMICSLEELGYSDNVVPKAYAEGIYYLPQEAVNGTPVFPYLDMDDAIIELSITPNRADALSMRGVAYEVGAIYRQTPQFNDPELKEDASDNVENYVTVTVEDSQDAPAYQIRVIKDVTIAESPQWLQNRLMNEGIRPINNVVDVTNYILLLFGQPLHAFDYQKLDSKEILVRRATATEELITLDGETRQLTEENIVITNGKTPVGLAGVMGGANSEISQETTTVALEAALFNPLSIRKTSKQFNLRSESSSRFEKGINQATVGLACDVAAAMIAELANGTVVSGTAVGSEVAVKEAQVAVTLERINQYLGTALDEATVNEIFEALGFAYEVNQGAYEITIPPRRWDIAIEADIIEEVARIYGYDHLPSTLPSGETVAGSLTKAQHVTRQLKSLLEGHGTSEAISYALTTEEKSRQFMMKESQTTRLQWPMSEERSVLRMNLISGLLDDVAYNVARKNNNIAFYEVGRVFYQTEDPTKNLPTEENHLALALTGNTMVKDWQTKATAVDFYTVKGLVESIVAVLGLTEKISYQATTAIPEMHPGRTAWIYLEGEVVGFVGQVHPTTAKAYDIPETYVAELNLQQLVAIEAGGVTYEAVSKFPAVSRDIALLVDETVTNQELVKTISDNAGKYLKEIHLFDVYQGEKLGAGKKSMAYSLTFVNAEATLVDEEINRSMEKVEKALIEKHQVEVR
Description: IC50 determinations for the aminoacyl-tRNA synthetases (aaRS) isolated from pathogen or HeLa cells were carried out using a modification of the aaRS charging and trichloroacetic acid precipitation assay described previously (see examples: D. Kern et. al., Biochemie, 61, 1257-1272 (1979) and J. Gilbart et. al. Antimicrobial Agents and Chemotherapy, 37(1), 32-38 (1993)). The aaRS enzymes were prepared via standard cloning and expression methods and partially purified or partially purified from pathogen and HeLa cell extracts. The activity of each aaRS enzyme was standardized as trichloroacetic acid precipitable counts (cpm) obtained at 10 minutes reaction time at Km concentrations of substrates. For practical purposes, the minimal acceptable value is approximately 2000 cpm per 10 minute reaction.
Test compounds were typically present as serial dilutions in concentration ranges of 0.35 nM to 35 μM. Test compound solutions were prepared by dissolving test compound in 100% dimethyl sulfoxide and diluting to the final concentration with 50 mM HEPES, pH 7.5. IC50 determinations were typically performed in duplicate with each experiment containing 4-8 concentrations of inhibitor along with two no inhibitor controls.
IC50 incubations were initiated by supplementing the preincubation mixture to a final assay concentration of 10 mM MgCl2, 30 mM KCl, 10 mM KF, 50 mM HEPES (pH 7.5), […], 2-20 μM [^3 H] amino acid, and 90-180 μM crude tRNA in a final volume of 35 microliters. The reaction was incubated at 25° C. for 5-20 minutes. At specified time points a 15 microliter aliquot was removed and added to a well of a Millipore filtration plate (Multiscreen-FB, MAFB NOB 10) containing 100 microliters of cold 5% (wt/vol) trichloroacetic acid. Trichloroacetic acid precipitable material was collected by filtration on Millipore Multiscreen filtration station, washed twice with cold 5% trichloroacetic acid, twice with water, and dried. Plates were typically allowed to air dry for several hours or they were baked at 50° C. in a vacuum oven for 30 minutes. The radioactivity on the dried plates was quantitated by the addition of Packard Microscint-20 to the wells and counting with a Packard TopCount scintillation counter.
Inhibitor activity was typically reported as a percentage of the control aaRS activity. The IC50 value was determined by plotting per cent activity versus compound concentration in the assay and identifying the concentration at which 50% of the activity was remaining.
Stereoisomers are tested separately and referred to by the suffix a-d.

S.aureus = assay: Whole cell antimicrobial screen (MIC, NCCLS microdilution); type: cell-based; details: for MIC: Staphylococcus aureus
Description: Compounds were tested for antimicrobial activity against a panel of organisms according to standard procedures described by the National Committee for Clinical Laboratory Standards (NCCLS document M7-A3, Vol. 13, No. 25, 1993/NCCLS document M27-P, Vol. 12, No. 25, 1992). Compounds were dissolved in 100% DMSO and were diluted to the final reaction concentration (0.1 μg/ml-500 μg/ml) in microbial growth media. In all cases the final concentration of DMSO incubated with cells is less than or equal to 1%. For minimum inhibitory concentration (MIC) calculations, 2-fold dilutions of compounds were added to wells of a microtiter plate containing 5×10^4 bacteria or fungal cells in a final volume of 200 lambda of an appropriate media (Mueller-Hinton Broth; Haemophilus Test Media; Mueller-Hinton Broth+5% Sheep Blood; or […]). Plates were incubated overnight at an appropriate temperature (30° C.-37° C.) and optical densities (measure of cell growth) were measured using a commercial plate reader. The MIC value is defmed as the lowest compound concentration inhibiting growth of the test organism.

[1] = 2-fold dilutions, overnight incubation, optical density readout, read-out: MIC S.aureus
[2] = 2-fold dilutions, overnight incubation, optical density readout

With `O=C(Nc1ccc(Cl)c(Cl)c1)C1C(c2ccccc2)OC23C(=O)c4ccccc4C2OC(=O)C13` (centres unmarked) [Example 2] the pIC50 (E.faecalis PheRS) was 5.51 and the MIC (S.aureus; [1]) was greater than 100 µg/mL.

`O=C(Nc1ccc(Cl)c(Cl)c1)C1C(c2ccccc2)OC23C(O)c4ccccc4C2OC(=O)C13` (single isomer, unassigned) [Example 1a] was tested, and the pIC50 (E.faecalis PheRS) was 6.77 and the “MIC S.aureus” value (S.aureus; [2]) was 3.1 µg/mL (≈ 6.25 µM).

In the case of `Cc1ccc(NC(=O)C2C(c3ccccc3)OC34C(O)c5ccccc5C3OC(=O)C24)cc1Cl` (centres unmarked) [Example 4b], the pIC50 (E.faecalis PheRS) was 5.08 and the “MIC S.aureus” value (S.aureus; [2]) was greater than 100 µg/mL.

`Cc1ccc(NC(=O)C2C(c3ccccc3)OC34C(O)c5ccccc5C3OC(=O)C24)cc1Cl` (centres unmarked) [Example 4c] was tested, and the pIC50 (E.faecalis PheRS) was 4.48 and the “MIC S.aureus” value (S.aureus; [2]) was 25 µg/mL (≈ 52.5 µM).

`O=C(Nc1ccc(Cl)c(Cl)c1)C1C(c2ccccc2)NC23C(O)c4ccccc4C2OC(=O)C13` (single isomer, unassigned) [Example 3b] showed a pIC50 (E.faecalis PheRS) of 5.37 and an MIC (S.aureus; [1]) of 25 µg/mL (≈ 50.5 µM).

With `Cc1ccc(NC(=O)C2C(c3ccccc3)OC34C(O)c5ccccc5C3OC(=O)C24)cc1Cl` (centres unmarked) [Example 4a] the pIC50 (E.faecalis PheRS) was 5.83 and the “MIC S.aureus” value (S.aureus; [2]) was greater than 100 µg/mL.

Work on `O=C(Nc1ccc(Cl)c(Cl)c1)C1C(c2ccccc2)OC23C(=NO)c4ccccc4C2OC(=O)C13` (centres unmarked) [Example 5] yielded an MIC (S.aureus; read-out: MIC S.aureus, 2-fold dilutions, overnight incubation, optical density readout) of less than 100 µg/mL.

With `O=C(Nc1ccc(Cl)c(Cl)c1)C1C(c2ccccc2)NC23C(O)c4ccccc4C2OC(=O)C13` (single isomer, unassigned) [Example 3c] the pIC50 (E.faecalis PheRS) was 6.40 and the “MIC S.aureus” value (S.aureus; [2]) was 12.5 µg/mL (≈ 25.2 µM).

In the case of `O=C(Nc1ccc(Cl)c(Cl)c1)C1C(c2ccccc2)OC23C(O)c4ccccc4C2OC(=O)C13` (single isomer, unassigned) [Example 1b], the pIC50 (E.faecalis PheRS) was 6.33 and the “MIC S.aureus” value (S.aureus; [2]) was 6.25 µg/mL (≈ 12.6 µM).
